One series deals with TLR2/6 (Homo sapiens, UniProt O60603). The series can be described thus: P2C-induced IL-8 mRNA (qRT-PCR) in HEK-TLR2 stable transfectants. The series is classed as cell-based. On the set-up: expressed in transfected cells. Conditions: 100 μM compound, 1 hr pretreatment, P2C 5 ng/mL 1 hr, HEK-TLR2 cells; read-out: decrease of P2C-induced IL-8 mRNA.
The next series deals with TLR2/1 (Mus musculus, UniProt Q9QUN7). The series can be described thus: Cytokine mRNA/protein in murine peritoneal macrophages stimulated with TLR2/1 agonists (P3C, LTA SA). The series is classed as cell-based. Conditions: murine macrophages, 25 μM or 50 μM, P3C 50 ng/mL 1 hr.
For series [1] the following is noted: in vivo; stated for o-vanillin, reported previously for its isomer vanillin (Beaudry 2010); cited from earlier work.

Some results are limits rather than exact numbers.

Chain of TLR2/6 (O60603 21-784): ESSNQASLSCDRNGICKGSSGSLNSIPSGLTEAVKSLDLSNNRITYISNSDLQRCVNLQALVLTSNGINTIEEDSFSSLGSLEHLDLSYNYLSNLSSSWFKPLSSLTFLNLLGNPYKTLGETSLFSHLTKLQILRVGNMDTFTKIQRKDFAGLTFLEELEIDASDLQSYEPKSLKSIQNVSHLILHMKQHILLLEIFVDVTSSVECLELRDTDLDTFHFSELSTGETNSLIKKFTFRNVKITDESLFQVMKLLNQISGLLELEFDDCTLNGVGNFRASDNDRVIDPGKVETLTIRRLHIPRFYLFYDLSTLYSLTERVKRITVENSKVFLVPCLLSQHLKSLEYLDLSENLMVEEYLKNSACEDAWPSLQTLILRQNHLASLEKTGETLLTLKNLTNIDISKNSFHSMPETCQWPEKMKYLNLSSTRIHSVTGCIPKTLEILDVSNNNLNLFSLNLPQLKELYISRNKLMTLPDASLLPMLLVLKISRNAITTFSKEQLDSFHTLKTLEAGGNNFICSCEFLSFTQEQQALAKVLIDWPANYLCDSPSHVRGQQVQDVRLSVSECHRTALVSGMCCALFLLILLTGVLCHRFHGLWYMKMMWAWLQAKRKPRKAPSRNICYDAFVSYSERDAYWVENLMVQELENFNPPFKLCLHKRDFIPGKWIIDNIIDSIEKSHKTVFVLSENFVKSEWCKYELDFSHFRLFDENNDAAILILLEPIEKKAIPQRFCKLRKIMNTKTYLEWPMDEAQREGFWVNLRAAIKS
Chain of TLR2/1 (Q9QUN7 25-784): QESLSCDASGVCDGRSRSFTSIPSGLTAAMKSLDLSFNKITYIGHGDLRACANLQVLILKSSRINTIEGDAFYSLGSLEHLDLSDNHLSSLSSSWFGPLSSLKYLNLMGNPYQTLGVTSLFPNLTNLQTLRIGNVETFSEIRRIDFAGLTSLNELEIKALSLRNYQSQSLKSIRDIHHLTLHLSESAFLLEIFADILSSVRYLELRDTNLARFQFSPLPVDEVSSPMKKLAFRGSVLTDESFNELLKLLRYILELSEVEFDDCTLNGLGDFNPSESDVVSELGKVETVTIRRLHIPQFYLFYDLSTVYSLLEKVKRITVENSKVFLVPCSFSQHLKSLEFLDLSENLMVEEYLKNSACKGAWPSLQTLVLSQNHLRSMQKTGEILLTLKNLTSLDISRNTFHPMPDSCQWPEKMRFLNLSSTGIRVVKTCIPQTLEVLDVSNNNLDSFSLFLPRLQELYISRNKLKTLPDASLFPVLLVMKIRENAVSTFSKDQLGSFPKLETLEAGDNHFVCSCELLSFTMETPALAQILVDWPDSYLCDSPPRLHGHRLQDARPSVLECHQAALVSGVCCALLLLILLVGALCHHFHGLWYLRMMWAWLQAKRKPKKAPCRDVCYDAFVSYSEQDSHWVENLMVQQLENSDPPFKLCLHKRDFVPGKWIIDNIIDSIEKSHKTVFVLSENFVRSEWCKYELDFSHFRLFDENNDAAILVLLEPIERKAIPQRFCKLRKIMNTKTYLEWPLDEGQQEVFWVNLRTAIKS

With `CN(CC(=O)Nc1ccc2c(c1)OCO2)S(=O)(=O)c1cccs1` [Compound C24], on TLR2/6, the inhibition at 100 µM was not below 50%.

`COc1cccc(-c2nc(CSCC(=O)NCCN3CCOCC3)c(C)o2)c1` [Compound C25]: at TLR2/6, the inhibition at 100 µM was not below 50%.

`COc1ccc(-c2nc(CSCC(=O)NCc3cccnc3)c(C)o2)cc1OC` [Compound C26]: on TLR2/6, the inhibition at 100 µM is not below 50%.

As to `Cc1c(N)cccc1C(=O)O` [Compound C29R, 3-amino-2-methylbenzoic acid, reference compound], the “TLR2/1-induced TNF-α gene expression” value at TLR2/1 is reported as “but not C29R, dose-dependently inhibited”.

`O=C(CCC1N=C2c3ccccc3NC(=S)N2C1=O)NCc1ccco1` (centres unmarked) [Compound C30]: on TLR2/6, the inhibition at 100 µM is not below 50%.

As for `CCN(CCCNc1nc(=S)[nH]c2ccccc12)c1ccccc1` [Compound C32], the inhibition at 100 µM on TLR2/6 is not below 50%.

Regarding `Cc1ccc(S(=O)(=O)NCCC(=O)NCCc2ccccc2)cc1` [Compound C33], the inhibition at 100 µM on TLR2/6 is not below 50%.

As for `COc1cc(C=O)ccc1O` [vanillin, reference compound], the bioavailability result in series [1] is “poor bioavailability”.

The values above are taken from patent publication US12653800B2, “Small molecule inhibitors of TLR2 signaling” (University of Maryland, Baltimore, priority 2015, dated 2026).
